From ChEMBL document CHEMBL1150240, “Synthesis and structure-activity relationships of 4-pyridones as potential antimalarials” (J Med Chem, 2008) come the findings set out here.

The source made the active and inactive calls. The calls are words filed in the database; no cut-off is given here.

Experiment [1] relates to Plasmodium yoelii. Briefly: Antimalarial activity as reduced parasitaemia against Plasmodium yoelii YM in CD1 mice (Mus musculus) after 7 peroral doses over 4 days. The experiment is classed as functional. Particulars: po, 96 h.
Experiment [2] concerns Plasmodium falciparum. Kind of experiment: Antimalarial activity against Plasmodium falciparum T9-96 infected Rhesus positive human erythrocytes by [3H]hypoxanthine uptake. The experiment is classed as functional, organism-based.
Experiment [3] relates to Plasmodium yoelii. Kind of experiment: Antimalarial activity as reduced parasitaemia against Plasmodium yoelii YM in CD1 mice (Mus musculus) given a single peroral dose. The experiment is classed as functional. Particulars: po.
In experiment [4] the test system is Plasmodium falciparum. Briefly: Antimalarial activity against Plasmodium falciparum 3D7A infected erythrocytes by [3H]hypoxanthine uptake. The experiment is classed as functional, organism-based.
The test system of experiment [5] is Plasmodium falciparum. Kind of experiment: Antimalarial activity as parasite elimination against Plasmodium falciparum infected Aotus monkeys at 10 mg/kg/day for 7 days. The experiment is classed as functional, organism-based.
Experiment [6] deals with Plasmodium falciparum. Briefly: Antimalarial activity against Plasmodium falciparum FCR3-A infected erythrocytes as [3H]hypoxanthine incorporation. The experiment is classed as functional, organism-based.

Consider `Cc1cc(=O)c(-c2ccc(Oc3ccc(C(F)(F)F)cc3)cc2)c(C)[nH]1`, for which the ED50 in the experiment on Plasmodium yoelii [1] turned out to be 1.3 mg/kg. This compound also returned an IC50 with Plasmodium falciparum [2] of 500 nM.

For the compound `Cc1[nH]c(C)c(-c2ccc(Oc3ccc(Cl)cc3)cc2)c(=O)c1Br`, the values for the ED50 with Plasmodium yoelii [1] and in the experiment on Plasmodium yoelii [3] were 0.3 mg/kg and 5 mg/kg, respectively. In the experiment on Plasmodium falciparum [2], this compound registered a half-maximal inhibitory concentration (IC50) of 40 nM.

With `Cc1[nH]c(C)c([C@H]2CC[C@H](c3ccc(Cl)cc3)CC2)c(=O)c1Cl`, it took a dose of 0.6 mg/kg to reach the 50% effect level in the experiment on Plasmodium yoelii [1] (ED50). Besides, half-maximal inhibition with Plasmodium falciparum [2] (IC50) required 50 nM.

As to `Cc1[nH]c(C)c(-c2ccc(Oc3ccc(C(F)(F)F)cc3)cc2)c(=O)c1Cl`, in the experiment on Plasmodium yoelii [1], the 50% effect level (ED50) was put at a dose of 0.6 mg/kg. In the experiment with Plasmodium falciparum [2], this compound registered a 50% inhibitory concentration (IC50) of 60 nM.

`CCN(CC)CCCC(C)Nc1ccnc2cc(Cl)ccc12` (centres undefined) [CHLOROQUINE]: the 50% effect level in the experiment on Plasmodium yoelii [1] (ED50) was put at a dose of 1.8 mg/kg.

In the case of `Cc1cc(=O)c(-c2ccc(Oc3ccc(Cl)cc3)cc2)c(C)n1O`, in the experiment on Plasmodium yoelii [1], the 50% effective dose (ED50) was > 1 mg/kg. Further, in the experiment with Plasmodium falciparum [2], the half-maximal inhibitory concentration (IC50) was 2200 nM.

With `O=c1c(-c2ccc(Oc3ccc(OC(F)(F)F)cc3)cc2)c[nH]c(C(F)(F)F)c1Br`, the IC50 in the experiment with Plasmodium falciparum [4] was > 1000 nM.

For `Cc1[nH]c(C(F)(F)F)c(Br)c(=O)c1-c1ccc(Oc2ccc(OC(F)(F)F)cc2)cc1`, the IC50 in the experiment with Plasmodium falciparum [4] is > 1000 nM.

For `Cc1[nH]c(C)c(-c2ccc(Oc3ccc(OC(F)(F)F)cc3)cc2)c(=O)c1Br`, the concentration for half-maximal inhibition (IC50) stood at 8 nM in the experiment with Plasmodium falciparum [4] and 30 nM with Plasmodium falciparum [2]. For the same compound, the median effective dose (ED50) worked out at 0.3 mg/kg in the experiment with Plasmodium yoelii [1] and 0.2 mg/kg in the experiment on Plasmodium yoelii [3]. In the experiment on Plasmodium falciparum [5], the outcome was Active.

The compound `Cc1[nH]c(C)c(-c2ccc(Oc3ccc(F)cc3)cc2)c(=O)c1Br` showed an ED50 in the experiment with Plasmodium yoelii [1] of 0.6 mg/kg. The compound also showed an IC50 in the experiment with Plasmodium falciparum [2] of 40 nM.

As for `Cc1[nH]c(C)c(-c2ccc(-c3ccc(Cl)cc3)cc2)c(=O)c1Cl`, the ED50 in the experiment with Plasmodium yoelii [1] came out at 0.7 mg/kg. In the experiment on Plasmodium falciparum [2], this compound displayed an IC50 of 400 nM.

Consider `Cc1[nH]c(C)c(-c2ccc(Oc3cccc(C(F)(F)F)c3)cc2)c(=O)c1Br`, for which the values for the ED50 in the experiment with Plasmodium yoelii [1] and in the experiment with Plasmodium yoelii [3] were 0.6 mg/kg and 3.6 mg/kg, respectively. The same compound gave an IC50 in the experiment on Plasmodium falciparum [2] of 30 nM.

Regarding `Cc1[nH]c(C)c(-c2ccc(Oc3cccc(C(F)(F)F)c3)cc2)c(=O)c1Cl`, the IC50 came out at 5 nM with Plasmodium falciparum [4], 30 nM in the experiment with Plasmodium falciparum [2] and 2.5 nM with Plasmodium falciparum [6]. The median effective dose (ED50) in the experiment with Plasmodium yoelii [1] and in the experiment on Plasmodium yoelii [3] was 0.2 mg/kg each time.

As to `Cc1[nH]c(C)c(-c2cccc(Oc3ccc(OC(F)(F)F)cc3)c2)c(=O)c1Br`, the half-maximal inhibitory concentration (IC50) in the experiment on Plasmodium falciparum [4] turned out to be 7 nM.

Turning to `Cc1[nH]c(C)c(-c2ccc(Oc3cccc(Cl)c3)cc2)c(=O)c1Cl`, the 50% effective dose (ED50) in the experiment with Plasmodium yoelii [1] was > 5 mg/kg. For the same compound, it took 30 nM to reach half-maximal inhibition in the experiment with Plasmodium falciparum [2] (IC50).

Regarding `Cc1[nH]c(C)c(-c2ccc(Oc3ccccc3)cc2)c(=O)c1Br`, the 50% effect level in the experiment on Plasmodium yoelii [1] (ED50) was put at a dose of 4 mg/kg. Besides, in the experiment on Plasmodium falciparum [2], inhibition was half-maximal at 150 nM (IC50).

On to `Cc1[nH]c(C)c(-c2ccc(Oc3ccc(C(F)(F)F)cc3)cc2)c(=O)c1Br`, for which the 50% effective dose (ED50) with Plasmodium yoelii [1] worked out at 0.3 mg/kg; in the experiment on Plasmodium yoelii [3], 1.1 mg/kg. In the experiment with Plasmodium falciparum [2], this compound yielded an IC50 of 30 nM.

For `Cc1cc(=O)c(-c2ccc(Oc3ccc(OC(F)(F)F)cc3)cc2)c(C)[nH]1`, the IC50 in the experiment with Plasmodium falciparum [4] and with Plasmodium falciparum [2] was 160 nM in each case. The ED50 with Plasmodium yoelii [1] is > 5 mg/kg.

In the experiment with Plasmodium falciparum [4], `Cc1[nH]cc(-c2ccc(Oc3ccc(OC(F)(F)F)cc3)cc2)c(=O)c1Br` yielded an IC50 of 200 nM.

`Cc1[nH]cc(Br)c(=O)c1-c1ccc(Oc2ccc(OC(F)(F)F)cc2)cc1` showed a 50% inhibitory concentration (IC50) in the experiment on Plasmodium falciparum [4] of 110 nM.

Turning to `CCCCCCCCc1c(C)[nH]c(C)c(Cl)c1=O`, the ED50 in the experiment with Plasmodium yoelii [1] is > 60 mg/kg. Besides, in the experiment on Plasmodium falciparum [2], the IC50 came out at 4000 nM.

Consider `Cc1[nH]c(C)c(-c2ccc(Cl)cc2)c(=O)c1Cl`, for which the 50% effect level in the experiment with Plasmodium yoelii [1] (ED50) was put at a dose of 20 mg/kg. In the experiment with Plasmodium falciparum [2], this compound showed an IC50 of 2500 nM.

In the experiment on Plasmodium yoelii [1], `O=C1C(O)=C([C@H]2CC[C@H](c3ccc(Cl)cc3)CC2)C(=O)c2ccccc21` [ATOVAQUONE] gave a median effective dose (ED50) of 0.03 mg/kg. For the same compound, the IC50 in the experiment with Plasmodium falciparum [2] came to 3 nM; in the experiment with Plasmodium falciparum [6], 1360 nM.

Compound `Cc1[nH]c(C)c(C(F)(F)F)c(=O)c1-c1ccc(Oc2ccc(OC(F)(F)F)cc2)cc1` showed an IC50 with Plasmodium falciparum [4] of 30 nM.

In the case of `Cc1[nH]c(C)c([N+](=O)[O-])c(=O)c1-c1ccc(Oc2ccc(OC(F)(F)F)cc2)cc1`, 30 nM corresponded to half-maximal inhibition with Plasmodium falciparum [4] (IC50).

As to `Cc1[nH]c(C)c(-c2ccc(Oc3ccc(OC(F)(F)F)cc3)cc2)c(=O)c1CN1CCCC1`, it took 1290 nM to reach half-maximal inhibition with Plasmodium falciparum [4] (IC50).

Regarding `Cc1[nH]c(C)c(-c2ccccc2)c(=O)c1Cl`, the ED50 in the experiment on Plasmodium yoelii [1] was 22 mg/kg. Moreover, half-maximal inhibition in the experiment on Plasmodium falciparum [2] (IC50) required 11000 nM.

In the experiment on Plasmodium yoelii [1], `Cc1[nH]c(C)c(-c2ccc(Oc3cccc(Cl)c3)cc2)c(=O)c1Br` yielded a 50% effective dose (ED50) of 3.9 mg/kg. 30 nM corresponded to half-maximal inhibition in the experiment with Plasmodium falciparum [2] (IC50).

For `Cc1[nH]c(C)c(-c2ccccc2Oc2ccc(OC(F)(F)F)cc2)c(=O)c1Br`, inhibition in the experiment on Plasmodium falciparum [4] was half-maximal at 400 nM (IC50).

As for `Cc1cc(=O)c(-c2ccc(Oc3ccc(Cl)cc3)cc2)c(C)[nH]1`, in the experiment with Plasmodium yoelii [1], the 50% effect level (ED50) was put at a dose of 2.5 mg/kg. Besides, the midpoint of inhibition with Plasmodium falciparum [2], the IC50, lay at 250 nM.

With `Cc1c(Br)c(=O)c(-c2ccc(Oc3ccc(Cl)cc3)cc2)c(C)n1O`, the 50% effective dose (ED50) in the experiment with Plasmodium yoelii [1] was determined as 1 mg/kg. Moreover, the IC50 in the experiment on Plasmodium falciparum [2] was determined as 450 nM.

For `Cc1[nH]c(C)c(-c2ccc(Oc3ccc(OC(F)(F)F)cc3)cc2)c(=O)c1Cl`, the IC50 was 5 nM with Plasmodium falciparum [4], 30 nM in the experiment with Plasmodium falciparum [2] and 1 nM with Plasmodium falciparum [6]. The ED50 in the experiment on Plasmodium yoelii [1] came to 0.2 mg/kg; with Plasmodium yoelii [3], 0.4 mg/kg. The result in the experiment with Plasmodium falciparum [5] was Active.

On to `COc1c(C)[nH]c(C)c(-c2ccc(Oc3cccc(C(F)(F)F)c3)cc2)c1=O`, for which, in the experiment with Plasmodium falciparum [4], the IC50 was 300 nM.

As for `Cc1[nH]c(C)c(-c2ccc(Oc3ccc(Cl)cc3)cc2)c(=O)c1Cl`, the ED50 in the experiment with Plasmodium yoelii [1] worked out at 0.6 mg/kg. The compound further returned an IC50 with Plasmodium falciparum [2] of 60 nM.

`Cc1nc(C)c(Cl)c(O)c1Cl` [CLOPIDOL] registered a median effective dose (ED50) in the experiment with Plasmodium yoelii [1] of 40 mg/kg. The same compound registered an IC50 in the experiment with Plasmodium falciparum [2] of 20000 nM.

By ED50 is commonly meant the dose that gives a 50% effect, or the effect in half of the subjects. Broadly, the IC50 is the point on the concentration scale where inhibition reaches its midpoint.
